Assay [1] has as its system AMBP protein. In words: Immunoblot of AMBP protein levels in urine and kidney samples of treated jck mice. The format is in vivo, mouse. As for the experimental part:
Kidney samples were homogenized in RIPA buffer (Boston BioProducts) including 1 mM DTT, 5 mM EDTA, 2 mM NaF, 1 mM Na3VO4 (all supplied by Sigma-Aldrich), Pefabloc SC and Complete Proteinase Inhibitor Cocktail (both from Roche Applied Science). Protein concentrations were determined by BCA protein assay (Pierce). Urine samples were briefly centrifuged at 3000 RPM for 10 minutes at 4° C. (Beckman Coulter Allegra 6A) to remove cellular debris. An equal volume of urine was diluted in 5× Laemmli Buffer (15% SDS, 0.575 M sucrose, 0.325 M Tris, pH 6.8, 5% beta-mercaptoethanol and 0.002% bromophenol blue). Equal amounts of protein and urine were loaded onto 4-14% NuPage Bis-Tris gels following the manufacturer's protocols (Invitrogen). Membranes were blocked with 5% nonfat milk in Tris-buffered saline (TBS) including 0.1% Tween-20 and incubated with primary antibodies overnight at 4° C. Primary antibodies were detected with horseradish peroxidase-labeled secondary antibodies (Promega). Immunoreactive proteins were detected by enhanced chemiluminescence (GE Healthcare). Primary antibodies to the following proteins were used: α-1-microglobulin and β-actin (Abcam), and GAPDH (US Biological).
Roscovitine was administered ad libitum to jck mice from 26 to 64 days of age by mixing in powdered 5053 diet at 0.2%. The GCSi (Genz-123346) was administered ad libitum to jck mice from day 26 to day 64 after birth by mixing in powdered 5053 diet at 0.225% (Natoli et al., Nature Med. 16:788-792, 2010). Chronic and pulse treatment with S-CR8 was performed by daily intraperitoneal injection with 24 mg/kg starting from day 26 after birth. Urine was collected for 24 hours consecutively (at day 26, 33, 41, 48, and 64 after birth) over a 5-week period from animals with a range of disease severity measured by kidney to body weight ratio (K/BW) and cystic percentage (C %).
A second set of experiments was performed in jck mice to determine a second CDK inhibitor, S-CR8, would decrease both AMBP levels and kidney volume. In these experiments, the jck animals were administered one of the following treatment schedules starting at day 26 after birth: (A) daily intraperitoneal injection with 24 mg/kg S-CR8 for five weeks; (B) daily intraperitoneal injection with 24 mg/kg S-CR8 for three weeks, and two weeks with no treatment; and (D) daily intraperitoneal injection with 24 mg/kg S-CR8 for one week and four weeks with no treatment (FIG. 18). As a control, jck animals were administered a vehicle between day 26 to day 64 after birth.

Assay [2] has as its system jck mice. Put plainly: Treatment of jck mice (PKD model): kidney volume / cyst volume. The format is in vivo, mouse. As for the experimental part: C57BL/6J jck/+ mice were maintained for mating. Cystic jck/jck mice were genotyped as previously described (Smith et al., J. Am. Soc. Nephrol. 17:2821-2831, 2006). […] conditional knockout mice were generated as described previously (Natoli et al., Nature Med. 16:788-792, 2010). The […] gene was deleted by inducing the Cre recombinase activity with tamoxifen delivered in sunflower oil (Sigma-Aldrich, St. Louis, MO), on postnatal day 1 with 100 mg/kg.
A jck mouse model of PKD (Smith et al., J. Am. Soc. Nephrol. 17:2821-2831, 2006) was used to assess the expression of AMBP. Jck mice are characterized by development of moderately progressive renal cystic disease. Kidneys from the jck mouse model are enlarged by day 26 after birth and have multiple cysts. […] Renal function in jck mice, as measured by serum creatinine and blood urea nitrogen, progressively elevates over time. […] Cysts originating from the proximal tubules are not detected in jck mice (Smith et al., J. Am. Soc. Nephrol. 17:2821-2831, 2006).
Roscovitine was administered ad libitum to jck mice from 26 to 64 days of age by mixing in powdered 5053 diet at 0.2%. […] Urine was collected for 24 hours consecutively (at day 26, 33, 41, 48, and 64 after birth) over a 5-week period from animals with a range of disease severity measured by kidney to body weight ratio (K/BW) and cystic percentage (C %). […]

Where [3] appears, read: 0.225% in diet day 26 to day 64 after birth, day 64, vs vehicle (FIG. 22).
Where [4] appears, read: oral 0.2% in feed day 26 to day 64 after birth, day 64, vs vehicle (FIG. 17).

The structures appear in SMILES notation.

Take `CCCCCCCCC(=O)N[C@H](CN1CCCC1)[C@H](O)c1ccc2c(c1)OCCO2` [Genz-123346]: in assay [1] (setting [3]), the “AMBP levels in kidney tissue samples” value is reported as “decrease” and the “AMBP levels in urine samples” value was “decrease”.

Consider `CC[C@@H](CO)Nc1nc(NCc2ccc(-c3ccccn3)cc2)c2ncn(C(C)C)c2n1` [S-CR8], for which, in assay [2] (daily intraperitoneal 24 mg/kg from day 26, all tested schedules (A 5 weeks, B 3 weeks, D 1 week), vs vehicle), the “cyst volume (cystic volume as percentage of body weight, FIG. 19)” value is listed as “decrease”. Besides, the “urine AMBP protein levels” value in assay [1] (daily intraperitoneal 24 mg/kg from day 26, all tested schedules (A, B, D), urine at day 64, vs vehicle (FIGS. 20 and 21)) was “decrease”.

`CC[C@H](CO)Nc1nc(NCc2ccccc2)c2ncn(C(C)C)c2n1` [roscovitine]: the “kidney volume (kidney to body weight, FIG. 16)” value in assay [2] (oral 0.2% in feed day 26 to day 64 after birth, measured at day 64, vs vehicle) is listed as “decrease”. Besides, in assay [1] (setting [4]), the “AMBP protein levels in kidney samples” value is “decrease” and the “AMBP protein levels in urine” value is reported as “decrease”.
